In patent US9415049B2, “Heteroaryl compounds and uses thereof” (Celgene Avilomics Research, Inc., priority 2013, dated 2016):

Key:
[1] = system: PLCγ2 phosphorylation (Phospho Y-1217 PLCγ2) in Ramos cells; assay: Btk Ramos cell signaling immunoblot analysis, phospho-PLCγ2; type: cell-based; conditions: 1 hour compound incubation, anti-human IgM stimulation, read-out: pPLCγ2 EC50
Procedure: The following example describes testing certain compounds according to the invention for inhibition of BTK activity. Ramos cells were incubated in serum-free RPMI medium for 1-1.5 hours. Cells were then centrifuged for 5 minutes at 1100 RPM and resuspended in serum-free RPMI in 15 mL roundbottom Corning tubes (˜2×10^6 cells/mL in 4 mL/tube). The compound was diluted in DMSO and was added to the cells to achieve a final concentration of 0.0003, 0.001, 0.003, 0.01, 0.03, 0.1, 0.3, and 1.0 μM. Cells were then incubated for 1 hour at 37° C. Following incubation, cells were spun at 1100 RPM for 5 minutes and then resuspended in 100 μL of serum-free RPMI. […] Supernatant was transferred to a fresh tube and analyzed for protein content. […]
10 μg of protein was denatured by adding 1:10 (v:v) of NuPage Reducing Agent plus 1:4 (v:v) of LDS Loading Buffer. […] The membrane was then scanned on a LiCor Odyssey Scanner using infrared fluorescence detection.
Data analysis was accomplished using the analysis package found in Odyssey Infrared Imaging System software in which intensities of total Btk and phospho-Btk were measured. Phospho-Btk was normalized to total Btk protein in each lane as a loading control and results are expressed as % activity compared to the DMSO control (100%) Inhibition of phospho-PLCγ2 was quantitated in a similar manner. […]

BTK = target: T1, BTK (Homo sapiens, UniProt Q06187); assay: Btk target site occupancy, covalent probe ELISA in Ramos cells; type: cell-based; conditions: 1 hour at 37° C., 0.09-200 nM, read-out: Ramos cell EC50 (nM), BTK occupancy
T1 construct: endogenous in cells; host or cells: Ramos cells
Procedure: A covalent probe shown below was used in an ELISA assay to determine occupancy of the target BTK by certain compounds according to the invention.
Ramos cells were incubated in serum-free RPMI medium for 1 hour (˜2×10^6 cells/mL in 2 mL). Test compounds were diluted from a 10 mM DMSO stock solution, to achieve a final concentration of 0.09, 0.27, 0.82, 2.47, 7.42, 22.2, 66, and 200 nM. Cells were then incubated for 1 hour at 37° C. Following incubation, cells were spun at 1100 RPM for 5 minutes then washed in 200 μL of chilled PBS. Following the wash, cells were spun at 1100 RPM for 5 minutes. The supernatant was aspirated and then cells were resuspended in lysis buffer containing protease and phosphatase inhibitors. This was followed by centrifugation for 15 minutes at 14000 RPM at 4° C. Supernatant was transferred to a fresh tube. Lysates were stored at −80° C. until assayed.
Samples were thawed and mixed well by vortexing for 5 seconds. 60 μL of each sample was added into the 96-well mixing plate followed by addition of 60 μL of covalent probe solution (2 μM probe in PBS+0.05% Tween-20+1% BSA; 1:2 sample dilution) to each well containing sample. An adhesive cover was then placed on the plate followed by mixing of the plate on a shaker for 1 hour at room temperature. The streptavidin plate was pre-washed 3 times with PBS+0.05% Tween-20. 50 μL of the standards, QCs, and samples were then transferred from the mixing plate to the streptavidin plate. The plate was covered with an adhesive cover and mixed while shaking for 1 hour at room temperature. A 1:1000 dilution of the primary anti-Btk antibody (catalog #611116, Becton Dickinson; Franklin Lakes, N.J.) in PBS+0.05% Tween-20+0.5% BSA was prepared. The streptavidin plate was washed 3 times with PBS+0.05% Tween-20 and 50 μL/well of diluted anti-Btk antibody was then pipetted into the streptavidin plate. The plate was covered and incubated for 1 hour at room temperature. A 1:5000 dilution of secondary antibody (goat anti-mouse-HRP, catalog #62-6520, Zymed-Invitrogen; Carlsbad, Calif.) in PBS+0.05% Tween-20+0.5% BSA was prepared. The streptavidin plate was again washed 3 times with PBS+0.05% Tween-20 and 50 μL/well of diluted secondary antibody was pipetted into the streptavidin plate. The plate was covered and incubated for 1 hour at room temperature. The streptavidin plate was again washed 3 times with PBS+0.05% Tween-20 followed by the addition of 100 μL of TMB solution to each well. The plate was then read on a Synergy^2 plate reader at OD 650 nm until the OD maximum reached 1.0. This was followed by the addition of 100 μL of the Stop Solution. The plate was then read at OD 450 nm. A human recombinant Btk protein standard curve (11.7-3000 pg/μL) was plotted using a 4 parameter curve fit in GenS software (Version 1.05.11; Biotek; Winooski, Vt.;). The sample ODs were read against the standard curve to calculate free protein amounts.
Data were generated as ODs on an ELISA plate reader (Synergy^2, BioTek; Winooski, Vt.). Uninhibited Btk captured by the biotinylated covalent probe was quantitated and normalized to untreated control samples. Results were expressed as % Btk occupancy. EC50 values were generated using a 4 parameter curve fit analysis in GraphPad Prism version 5.0.

T1 sequence (Q06187 whole entry): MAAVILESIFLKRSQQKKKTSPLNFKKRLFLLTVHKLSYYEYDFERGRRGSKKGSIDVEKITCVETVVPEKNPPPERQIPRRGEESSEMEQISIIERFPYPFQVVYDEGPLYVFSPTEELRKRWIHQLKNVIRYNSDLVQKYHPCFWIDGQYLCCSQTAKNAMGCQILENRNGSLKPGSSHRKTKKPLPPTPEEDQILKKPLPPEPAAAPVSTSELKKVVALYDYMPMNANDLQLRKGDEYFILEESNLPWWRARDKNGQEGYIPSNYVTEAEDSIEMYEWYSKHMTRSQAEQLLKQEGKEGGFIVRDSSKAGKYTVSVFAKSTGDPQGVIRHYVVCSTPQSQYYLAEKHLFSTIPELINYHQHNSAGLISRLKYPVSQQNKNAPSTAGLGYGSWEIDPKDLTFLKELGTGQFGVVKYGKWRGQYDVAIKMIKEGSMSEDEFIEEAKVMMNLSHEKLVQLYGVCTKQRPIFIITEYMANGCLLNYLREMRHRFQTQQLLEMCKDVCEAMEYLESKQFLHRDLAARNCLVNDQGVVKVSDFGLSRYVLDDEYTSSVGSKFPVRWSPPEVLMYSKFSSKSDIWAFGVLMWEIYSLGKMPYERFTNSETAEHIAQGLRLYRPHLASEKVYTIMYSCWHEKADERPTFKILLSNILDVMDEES

SMILES	EC50 [1] [nM]	EC50 (BTK) [nM]
C=CC(=O)Nc1cccc(Nc2nc(Nc3ccc(O)cc3)ncc2F)c1 [Compound I-3, N-(3-((5-fluoro-2-((4-hydroxyphenyl)amino)pyrimidin-4-yl)amino)phenyl)acrylamide]	10 to 50	< 50
C=CC(=O)Nc1cccc(Nc2nc(Nc3ccc(OCCO)cc3)ncc2F)c1 [Compound I-1, N-(3-((5-fluoro-2-((4-(2-hydroxyethoxy)phenyl)amino)pyrimidin-4-yl)amino)phenyl)acrylamide]	< 10	< 50
